Among the data in PubChem BioAssay AID256 (DTP/NCI, 2004) are T/C values, retold here.

The assay has as its system CD2F1 mice, L1210 leukemia ip, survival T/C. The assay is described as follows: NCI In Vivo Anticancer Drug Screen. Data for tumor model L1210 Leukemia (intraperitoneal) in CD2F1 (CDF1) mice. The conditions noted are these: higher = longer survival. The method in brief: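 Tumor-bearing mice (transplanted tumor) were split into treated and vehicle control groups, and the measured endpoint of each treated group was divided by that of its vehicle controls.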

Where [1] appears, read: endpoint: mean survival time, dose: 100.0 mg/kg/injection, schedule: Q01DX009 (ip), vehicle: saline.
[2] abbreviates: endpoint: mean survival time, dose: 200.0 mg/kg/injection, schedule: Q01DX009 (ip), vehicle: saline.
The mark [3] stands for this setting: endpoint: mean survival time, dose: 400.0 mg/kg/injection, schedule: Q01DX009 (ip), vehicle: saline.
Where [4] appears, read: endpoint: mean survival time, dose: 100.0 mg/kg/injection, schedule: Q01DX009 (ip), vehicle: saline with Tween-80.
The mark [5] stands for this setting: endpoint: mean survival time, dose: 200.0 mg/kg/injection, schedule: Q01DX009 (ip), vehicle: saline with Tween-80.
The mark [6] stands for this setting: endpoint: mean survival time, dose: 400.0 mg/kg/injection, schedule: Q01DX009 (ip), vehicle: saline with Tween-80.
The mark [7] stands for this setting: endpoint: mean survival time, dose: 100.0 mg/kg/injection, schedule: Q04DX003 (ip), vehicle: saline.
[8] abbreviates: endpoint: mean survival time, dose: 200.0 mg/kg/injection, schedule: Q04DX003 (ip), vehicle: saline.
Where [9] appears, read: endpoint: mean survival time, dose: 400.0 mg/kg/injection, schedule: Q04DX003 (ip), vehicle: saline.
[10] abbreviates: endpoint: mean survival time, dose: 100.0 mg/kg/injection, schedule: Q04DX003 (ip), vehicle: saline with Tween-80.
Setting [11] is: endpoint: mean survival time, dose: 200.0 mg/kg/injection, schedule: Q04DX003 (ip), vehicle: saline with Tween-80.
Setting [12] is: endpoint: mean survival time, dose: 400.0 mg/kg/injection, schedule: Q04DX003 (ip), vehicle: saline with Tween-80.

Structures are written as SMILES. Several values for one entry are separate records, joined by “and”; a condition that tells them apart may be missing. Identical values can stand only once. Toxic doses and inconclusive results are not listed.

With `Cc1noc(C)c1CO`, the T/C reads like this: under setting [1], 100 % of control; under setting [2], 101 % of control; under setting [3], 101 % of control.
Take `Cc1ccccc1N`: the T/C by setting is: under setting [4], 102 % of control; under setting [5], 107 % of control.
In the case of `NC(=O)N(CCO)CCO`, the T/C under setting [1] is 111 % of control, the T/C under setting [2] is 107 % of control and the T/C under setting [3] was 101 % of control.
Consider `O=C(O)c1cc(N=Nc2ccc3ccccc3c2)ccc1O`, for which the T/C under setting [4] is 103 % of control, the T/C under setting [5] was 106 % of control and the T/C under setting [6] is 98 % of control.
With `O=C(Nc1ccc(Cl)cc1[N+](=O)[O-])c1ccc2ccccc2c1O`, the T/C (endpoint: mean survival time, dose: 100.0 mg/kg/injection, schedule: Q01DX001 (ip), vehicle: Klucel (hydroxypropylcellulose) (HPC)) is 100 % of control; the T/C (endpoint: mean survival time, dose: 200.0 mg/kg/injection, schedule: Q01DX001 (ip), vehicle: Klucel (hydroxypropylcellulose) (HPC)) was 105 % of control; the T/C (endpoint: mean survival time, dose: 400.0 mg/kg/injection, schedule: Q01DX001 (ip), vehicle: Klucel (hydroxypropylcellulose) (HPC)) was 100 % of control.
With `Cc1cc(C)c(CCl)cc1CCl`, the T/C reads like this: (endpoint: mean survival time, dose: 12.5 mg/kg/injection, schedule: Q01DX009 (ip), vehicle: saline with Tween-80) 100 % of control; (endpoint: mean survival time, dose: 25.0 mg/kg/injection, schedule: Q01DX009 (ip), vehicle: saline with Tween-80) 98 % of control; (endpoint: mean survival time, dose: 50.0 mg/kg/injection, schedule: Q04DX003 (ip), vehicle: saline with Tween-80) 103 % of control.
Take `O=C1CCCc2ccc(Cl)cc21`: the T/C reads like this: under setting [7], 96 % of control; under setting [8], 97 % of control; under setting [9], 108 % of control.
Consider `Nc1c(-c2ncc[nH]2)ncn1CC(O)C(O)C(O)CO` (centres undefined), for which the T/C is 98 % of control (endpoint: mean survival time, dose: 12.5 mg/kg/injection, schedule: Q01DX005 (ip), vehicle: saline with Tween-80); 101 % of control (endpoint: mean survival time, dose: 25.0 mg/kg/injection, schedule: Q01DX005 (ip), vehicle: saline with Tween-80); 103 % of control (endpoint: mean survival time, dose: 50.0 mg/kg/injection, schedule: Q01DX005 (ip), vehicle: saline with Tween-80); 92 % of control (endpoint: mean survival time, dose: 100.0 mg/kg/injection, schedule: Q01DX005 (ip), vehicle: saline with Tween-80); 98 % of control (endpoint: mean survival time, dose: 200.0 mg/kg/injection, schedule: Q01DX005 (ip), vehicle: saline with Tween-80).
On to `CCCCNC(C)(C)C(SS)c1cccs1` (centres undefined), for which the T/C by setting is: (endpoint: mean survival time, dose: 66.0 mg/kg/injection, schedule: Q01DX009 (ip), vehicle: other) 101 % of control; (endpoint: mean survival time, dose: 150.0 mg/kg/injection, schedule: Q01DX009 (ip), vehicle: other) 108 % of control; (endpoint: mean survival time, dose: 200.0 mg/kg/injection, schedule: Q01DX009 (ip), vehicle: other) 94 % of control; (endpoint: mean survival time, dose: 400.0 mg/kg/injection, schedule: Q01DX009 (ip), vehicle: other) 92 % of control.
In the case of `CCCn1c2cc([N+](=O)[O-])ccc2c(=O)c2ccc3ccccc3c21`, the T/C by setting is: (endpoint: mean survival time, dose: 50.0 mg/kg/injection, schedule: Q01DX009 (ip), vehicle: saline with Tween-80) 97 % of control; under setting [4], 104 % of control; under setting [5], 101 % of control.
With `CC[C@@]1(O)C(=O)OCc2c1cc1n(c2=O)Cc2cc3c(N)cccc3nc2-1`, the T/C (endpoint: median survival time, dose: 0.25 mg/kg/injection, schedule: Q01DX005 (ip), vehicle: saline with Tween-80) was 168 % of control; the T/C (endpoint: median survival time, dose: 0.3 mg/kg/injection, schedule: Q01DX005 (ip), vehicle: saline with Tween-80) was 150 % of control; the T/C (endpoint: median survival time, dose: 0.5 mg/kg/injection, schedule: Q01DX005 (ip), vehicle: saline with Tween-80) is 182 % of control and 223 % of control; the T/C (endpoint: median survival time, dose: 0.63 mg/kg/injection, schedule: Q04DX002 (ip), vehicle: saline with Tween-80) is 202 % of control; the T/C (endpoint: median survival time, dose: 0.84 mg/kg/injection, schedule: Q01DX005 (ip), vehicle: saline with Tween-80) is 182 % of control; the T/C (endpoint: median survival time, dose: 1.0 mg/kg/injection, schedule: Q01DX005 (ip), vehicle: saline with Tween-80) was 108 % of control. Moreover, the T/C by setting is: (endpoint: median survival time, dose: 1.25 mg/kg/injection, schedule: Q04DX002 (ip), vehicle: saline with Tween-80) 228 % of control; (endpoint: median survival time, dose: 1.39 mg/kg/injection, schedule: Q01DX005 (ip), vehicle: saline with Tween-80) 365 % of control; (endpoint: median survival time, dose: 2.0 mg/kg/injection, schedule: Q01DX005 (ip), vehicle: saline with Tween-80) 87 % of control; (endpoint: median survival time, dose: 2.32 mg/kg/injection, schedule: Q01DX005 (ip), vehicle: saline with Tween-80) 121 % of control; (endpoint: median survival time, dose: 2.5 mg/kg/injection, schedule: Q04DX002 (ip), vehicle: saline with Tween-80) 348 % of control and 361 % of control; (endpoint: median survival time, dose: 5.0 mg/kg/injection, schedule: Q04DX002 (ip), vehicle: saline with Tween-80) 220 % of control and 361 % of control. In addition, for the setting “endpoint: median survival time, dose: 10.0 mg/kg/injection, schedule: Q04DX002 (ip), vehicle: saline with Tween-80”, the T/C was 93 % of control.
`CO/C=C1\Cc2cc(OC)c(OC)cc2C1=O`: the T/C was 100 % of control under setting [10], 94 % of control under setting [11] and 102 % of control under setting [12].
In the case of `Cc1ccc(-c2noc(C)n2)cc1`, the T/C (endpoint: mean survival time, dose: 100.0 mg/kg/injection, schedule: Q01DX001 (ip), vehicle: saline) was 103 % of control; the T/C (endpoint: mean survival time, dose: 200.0 mg/kg/injection, schedule: Q01DX001 (ip), vehicle: saline) is 105 % of control; the T/C (endpoint: mean survival time, dose: 400.0 mg/kg/injection, schedule: Q01DX001 (ip), vehicle: saline) was 103 % of control.
For the compound `CCCCOc1ccc(/C=N\N=C\c2ccc(OCCCC)cc2)cc1`, the T/C reads like this: under setting [10], 88 % of control; under setting [11], 91 % of control; under setting [12], 86 % of control.
The corresponding values for `O=C(c1ccc([N+](=O)[O-])cc1)C(Br)C(Br)c1ccncc1` (centres undefined) are 95 % of control, 97 % of control and 103 % of control.
The like results for `Clc1ccc2c(c1)Nc1cc(Cl)ccc1C=C2` were, in that order, 98 % of control, 93 % of control and 87 % of control.
For `CCCCCCCOc1ccc(N=[N+]([O-])c2ccc(OCCCCCCC)cc2)cc1`, the T/C is, setting by setting: under setting [10], 95 % of control; under setting [11], 91 % of control; under setting [12], 89 % of control.
`COC1(C)CCC(=O)O1` (centres undefined): the T/C under setting [7] was 96 % of control, the T/C under setting [8] is 96 % of control and the T/C under setting [9] is 101 % of control.
As for `S=c1nccc[nH]1`, for the setting “endpoint: mean survival time, dose: 100.0 mg/kg/injection, schedule: Q04DX002 (ip), vehicle: saline with Tween-80”, the T/C was 105 % of control.
For `CCC1CN2C(=N1)c1ccccc1-c1cc(Cl)ccc12` (centres undefined), the T/C runs as follows: (endpoint: mean survival time, dose: 10.0 mg/kg/injection, schedule: Q04DX003 (ip), vehicle: Klucel (hydroxypropylcellulose) (HPC)) 98 % of control; (endpoint: mean survival time, dose: 20.0 mg/kg/injection, schedule: Q04DX003 (ip), vehicle: Klucel (hydroxypropylcellulose) (HPC)) 103 % of control.
Turning to `CCCCCCCCCCS(=O)CC(CO)NC(=O)/C=C/c1c(C)[nH]c(=O)[nH]c1=O` (centres undefined), the T/C runs as follows: (endpoint: mean survival time, dose: 0.37 mg/kg/injection, schedule: Q01DX009 (ip), vehicle: distilled water + Tween-80) 102 % of control and 106 % of control; (endpoint: mean survival time, dose: 0.75 mg/kg/injection, schedule: Q01DX009 (ip), vehicle: distilled water + Tween-80) 110 % of control and 111 % of control; (endpoint: mean survival time, dose: 1.5 mg/kg/injection, schedule: Q01DX009 (ip), vehicle: distilled water + Tween-80) 113 % of control and 101 % of control; (endpoint: mean survival time, dose: 3.0 mg/kg/injection, schedule: Q01DX009 (ip), vehicle: distilled water + Tween-80) 114 % of control and 117 % of control; (endpoint: mean survival time, dose: 6.0 mg/kg/injection, schedule: Q01DX009 (ip), vehicle: distilled water + Tween-80) 117 % of control; (endpoint: mean survival time, dose: 12.0 mg/kg/injection, schedule: Q01DX009 (ip), vehicle: distilled water + Tween-80) 89 % of control and 96 % of control.
Turning to `Nc1nc(N)c(CCCOc2ccc([N+](=O)[O-])cc2Cl)c(N)n1`, the T/C was 90 % of control (endpoint: mean survival time, dose: 100.0 mg/kg/injection, schedule: Q04DX002 (ip), vehicle: Klucel (hydroxypropylcellulose) (HPC)); 94 % of control (endpoint: mean survival time, dose: 200.0 mg/kg/injection, schedule: Q04DX002 (ip), vehicle: Klucel (hydroxypropylcellulose) (HPC)); 90 % of control (endpoint: mean survival time, dose: 400.0 mg/kg/injection, schedule: Q04DX002 (ip), vehicle: Klucel (hydroxypropylcellulose) (HPC)).
As to `O=C1c2ccccc2-c2ccc3c4ccc5c6c(ccc(c7ccc1c2c73)c64)C(=O)c1ccccc1-5`, the T/C is 89 % of control under setting [4]; 90 % of control under setting [10]; 89 % of control under setting [5]; 87 % of control under setting [11]; 93 % of control under setting [6]; 96 % of control under setting [12].
